The values that follow come from patent US9023789B2, “Amylin analogs and pharmaceutical compositions thereof” (Novo Nordisk A/S, priority 2012, dated 2015).

The target in experiment [1] is T1, human calcitonin receptor (Homo sapiens, UniProt P30988).
T1 construct: expressed in transfected cells
T1 sequence (P30988 25-474): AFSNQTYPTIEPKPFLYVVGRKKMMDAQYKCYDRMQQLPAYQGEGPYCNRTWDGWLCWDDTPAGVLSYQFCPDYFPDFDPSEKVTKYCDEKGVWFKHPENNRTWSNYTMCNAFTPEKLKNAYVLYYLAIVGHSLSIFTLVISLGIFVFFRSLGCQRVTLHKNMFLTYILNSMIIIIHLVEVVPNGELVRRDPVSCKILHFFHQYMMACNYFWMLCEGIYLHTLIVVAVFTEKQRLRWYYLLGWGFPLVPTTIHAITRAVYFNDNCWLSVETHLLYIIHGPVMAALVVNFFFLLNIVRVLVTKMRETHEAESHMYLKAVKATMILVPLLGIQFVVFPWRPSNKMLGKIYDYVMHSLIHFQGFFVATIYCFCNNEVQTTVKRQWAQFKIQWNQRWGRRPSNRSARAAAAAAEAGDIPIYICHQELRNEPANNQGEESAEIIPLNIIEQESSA
Put plainly: ASSAY (VII) binding to the human calcitonin receptor (SPA, 125I-Calcitonin).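 Note: cell membranes (35 ng/µL) combined with SPA beads in 40 µL of pH 7.4 Hepes buffer, 384-well format, signal counted on a TopCounter instrument.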 The following applies: read-out: hCTR bind IC50.
Description: Membranes were prepared in the following way; the cells were rinsed with PBS and incubated with Versene for approximately 5 min before harvesting. The cells were flushed with PBS and the cell-suspension was centrifuged for 5 min at 1000 rpm. […] The resulting pellet was resuspended in buffer 2 and protein concentration was measured (BCA protein Assay, Pierce). The homogenate was kept cold during the whole procedure. The membranes were kept at −80° C. until use. Assay was performed in a 384 well Optiplate (PerkinElmer) in a total volume of 40 ul. Membranes were mixed with SPA beads. Final concentration of membranes 35 ng/μL final and Final concentration of SPA beads was 0.05 mg/well. Test-compounds were dissolved in DMSO and further diluted in assay buffer (50 mM Hepes, pH 7.4, 1 mM CaCl2, 5 mM MgCl2, 0.1% OA and 0.02% Tween20). […] Samples were analyzed on TopCounter™ (Packard).

Experiment [2] has as its target T2, human calcitonin (a) receptor in BHK570 cells (Homo sapiens, UniProt P30988).
T2 construct: expressed in transfected cells
T2 sequence (P30988 25-474): T1 sequence (P30988 25-474)
The experiment in a line: ASSAY (II)a functional assay, human calcitonin receptor (CRE luciferase). The experiment is classed as cell-based. The following applies: read-out: hCTR funct. EC50. A digest of the protocol: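 Readout is luminescence from a cAMP-responsive CRE-luc reporter, developed with LucLite for 30 min at room temperature. Cells were treated for 3 h at 37 °C in 10% FBS/DMEM buffered with 10 mM Hepes (pH 7.4).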

Experiment [3] has as its target T3, rat amylin receptor (rat calcitonin receptor + rat RAMP 3) (Rattus norvegicus, UniProt P32214+Q9JJ73).
T3 construct: expressed in transfected cells; host or cells: BHK tk'ts 13 (transient, FuGENE 6), membranes
T3 sequence (P32214 25-479 isoform P32214-2 limits assumed): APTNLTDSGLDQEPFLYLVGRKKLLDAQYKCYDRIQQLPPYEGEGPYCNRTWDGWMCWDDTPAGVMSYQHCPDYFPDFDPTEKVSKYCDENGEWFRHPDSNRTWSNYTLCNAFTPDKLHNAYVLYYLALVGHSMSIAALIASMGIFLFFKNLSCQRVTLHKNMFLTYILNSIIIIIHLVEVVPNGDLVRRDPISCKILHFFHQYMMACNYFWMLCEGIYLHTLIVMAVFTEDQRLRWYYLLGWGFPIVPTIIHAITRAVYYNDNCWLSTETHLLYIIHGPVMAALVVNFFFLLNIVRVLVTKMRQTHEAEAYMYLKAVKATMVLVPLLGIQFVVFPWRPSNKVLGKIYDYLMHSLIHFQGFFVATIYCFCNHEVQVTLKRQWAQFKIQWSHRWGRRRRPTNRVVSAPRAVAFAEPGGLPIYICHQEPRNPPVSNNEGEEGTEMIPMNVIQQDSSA
T3 sequence (Q9JJ73 23-147 partner): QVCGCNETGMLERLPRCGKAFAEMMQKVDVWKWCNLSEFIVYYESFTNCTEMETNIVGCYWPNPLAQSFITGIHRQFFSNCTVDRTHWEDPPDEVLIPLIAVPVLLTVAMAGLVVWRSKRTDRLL
Put plainly: ASSAY (VI) binding to the rat amylin receptor. Particulars: for IC50: binding to rat amylin receptor, read-out: rAmylin-R bind IC50. A digest of the protocol:
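Membranes for this rat amylin receptor binding assay came from BHK tk′ts 13 cells. The cells were transiently transfected with rat calcitonin receptor using the FuGENE® 6 reagent from Roche, as the manufacturer recommends. The cells were collected approximately 48 hours after transfection, and membranes were then prepared.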

The mark [4] stands for this setting: Table 7, rat binding selectivity, rCTR IC50 / rAmylin-R IC50.
[5] abbreviates: Table 7a (preferred compounds), rat binding selectivity, rCTR IC50 / rAmylin-R IC50.
Where [6] appears, read: ratio of rCTR bind IC50 to rAmylin-R bind IC50.

Molecules are shown by their SMILES. Numbered stars: 1 amine (or outer) side, 2 acyl side, 3 side chain; on linkers, the order of the positions; unused ones are H or OH. Bridge positions count the residues as written; N and C are the ends. Side chains are listed from the residue outwards. Peptide text beside a SMILES is read from it. * marks the point of attachment. C20 diacid = O=C(O)CCCCCCCCCCCCCCCCCCC(=O)*; γGlu = O=C(O)[C@H](CCC(=O)[*:2])N[*:1]; AEEA = NCCOCCOCC(=O)O

For orientation: IC50 means the midpoint of a concentration-inhibition curve. In general, EC50 refers to the concentration needed to bring the measured effect to its halfway point.

On to `CC[C@H](C)[C@H](NC(=O)[C@H](C)NC(=O)CNC(=O)[C@H](Cc1ccccc1)NC(=O)[C@H](CC(N)=O)NC(=O)[C@@H]1CCCN1C(=O)[C@H](CO)NC(=O)[C@H](CO)NC(=O)[C@H](Cc1c[nH]cn1)NC(=O)[C@H](CCCNC(=N)N)NC(=O)[C@H](CC(C)C)NC(=O)[C@H](Cc1ccccc1)NC(=O)[C@H](CC(N)=O)NC(=O)[C@H](C)NC(=O)[C@H](CC(C)C)NC(=O)[C@H](CCCNC(=N)N)NC(=O)[C@H](CCC(N)=O)NC(=O)[C@@H](NC(=O)[C@H](C)NC(=O)[C@@H]1CSSC[C@H](NC(=O)[C@H](CCCCN)NC(=O)CC[C@H](NC(=O)CCCCCCCCCCCCCCCCCCC(=O)O)C(=O)O)C(=O)N[C@@H](CC(N)=O)C(=O)N[C@@H]([C@@H](C)O)C(=O)N[C@@H](C)C(=O)N[C@@H]([C@@H](C)O)C(=O)N1)[C@@H](C)O)C(=O)N1CCC[C@H]1C(=O)N[C@@H](CO)C(=O)N[C@@H](CO)C(=O)N[C@H](C(=O)N[C@@H](CC(N)=O)C(=O)N[C@H](C(=O)NCC(=O)N[C@@H](CCCNC(=N)N)C(=O)N[C@@H](CC(N)=O)C(=O)N[C@H](C(=O)N[C@@H](Cc1ccc(O)cc1)C(N)=O)[C@@H](C)O)C(C)C)[C@@H](C)O` [Example 39] ({C20 diacid-γGlu}-KCNTATCATQRLANFLRHSSPNFGAIPSSTNVGRNTY-NH2; disulfide 2-7), for which the IC50 is 19.3 nM in experiment [1] and 1.77 nM in experiment [3] (Table 7). The EC50 in experiment [2] was 2.52 nM. The “Ratio rCT/rAmylin binding” value in experiment [3] (setting [4]), in experiment [3] (setting [5]) and in experiment [3] (setting [6]) was 54.5 throughout.

As to `CC[C@H](C)[C@H](NC(=O)[C@H](C)NC(=O)CNC(=O)[C@H](Cc1ccccc1)NC(=O)[C@H](CC(N)=O)NC(=O)[C@@H]1CCCN1C(=O)[C@H](CO)NC(=O)[C@H](CO)NC(=O)[C@H](Cc1c[nH]cn1)NC(=O)[C@H](CCCNC(=N)N)NC(=O)[C@H](CC(C)C)NC(=O)[C@H](Cc1ccccc1)NC(=O)[C@H](CC(N)=O)NC(=O)[C@H](C)NC(=O)[C@H](CC(C)C)NC(=O)[C@H](CCCNC(=N)N)NC(=O)[C@H](CCC(N)=O)NC(=O)[C@@H](NC(=O)[C@H](C)NC(=O)[C@@H]1CSSC[C@H](NC(=O)[C@@H](N)CCCCNC(=O)COCCOCCNC(=O)CC[C@H](NC(=O)CCCCCCCCCCCCCCCCCCC(=O)O)C(=O)O)C(=O)N[C@@H](CC(N)=O)C(=O)N[C@@H]([C@@H](C)O)C(=O)N[C@@H](C)C(=O)N[C@@H]([C@@H](C)O)C(=O)N1)[C@@H](C)O)C(=O)N1CCC[C@H]1C(=O)N[C@@H](CO)C(=O)N[C@@H](CO)C(=O)N[C@H](C(=O)N[C@@H](CC(N)=O)C(=O)N[C@H](C(=O)NCC(=O)N[C@@H](CO)C(=O)N[C@@H](CCC(=O)O)C(=O)N[C@H](C(=O)N[C@@H](Cc1ccc(O)cc1)C(N)=O)[C@@H](C)O)C(C)C)[C@@H](C)O` [Example 26] (H-K([AEEA-γGlu-C20 diacid])CNTATCATQRLANFLRHSSPNFGAIPSSTNVGSETY-NH2; disulfide 2-7; N-terminus assumed), the IC50 in experiment [1] is 25.3 nM; in experiment [3] (Table 7), 0.491 nM. Also, the EC50 in experiment [2] was determined as 6.34 nM. The “Ratio rCT/rAmylin binding” value in experiment [3] (setting [4]), in experiment [3] (setting [5]) and in experiment [3] (setting [6]) was 309.2 each time.

Take `CC[C@H](C)[C@H](NC(=O)[C@H](C)NC(=O)CNC(=O)[C@H](Cc1ccccc1)NC(=O)[C@H](CC(N)=O)NC(=O)[C@@H]1CCCN1C(=O)[C@H](CO)NC(=O)[C@H](CO)NC(=O)[C@H](Cc1c[nH]cn1)NC(=O)[C@H](CCCNC(=N)N)NC(=O)[C@H](CC(C)C)NC(=O)[C@H](Cc1ccccc1)NC(=O)[C@H](CCCNC(=N)N)NC(=O)[C@H](C)NC(=O)[C@H](CC(C)C)NC(=O)[C@H](CCCNC(=N)N)NC(=O)[C@H](CCC(N)=O)NC(=O)[C@@H](NC(=O)[C@H](C)NC(=O)[C@@H]1CSSC[C@H](NC(=O)[C@@H](N)CCCCNC(=O)COCCOCCNC(=O)CC[C@H](NC(=O)CCCCCCCCCCCCCCCCCCC(=O)O)C(=O)O)C(=O)N[C@@H](CC(N)=O)C(=O)N[C@@H]([C@@H](C)O)C(=O)N[C@@H](C)C(=O)N[C@@H]([C@@H](C)O)C(=O)N1)[C@@H](C)O)C(=O)N1CCC[C@H]1C(=O)N[C@@H](CO)C(=O)N[C@@H](CO)C(=O)N[C@H](C(=O)N1CCC[C@H]1C(=O)N[C@H](C(=O)NCC(=O)N[C@@H](CO)C(=O)N[C@@H](CC(N)=O)C(=O)N[C@H](C(=O)N[C@@H](Cc1ccc(O)cc1)C(N)=O)[C@@H](C)O)C(C)C)[C@@H](C)O` [Example 64] (H-K([AEEA-γGlu-C20 diacid])CNTATCATQRLARFLRHSSPNFGAIPSSTPVGSNTY-NH2; disulfide 2-7; N-terminus assumed): the IC50 in experiment [1] amounted to 56 nM; in experiment [3] (Table 7), 1.97 nM. In experiment [2], the EC50 came out at 22.9 nM. The “Ratio rCT/rAmylin binding” value in experiment [3] (setting [4]), in experiment [3] (setting [5]) and in experiment [3] (setting [6]) was 64.7 throughout.

For the compound `CC[C@H](C)[C@H](NC(=O)[C@H](C)NC(=O)CNC(=O)[C@H](Cc1ccccc1)NC(=O)[C@H](CC(N)=O)NC(=O)[C@@H]1CCCN1C(=O)[C@H](CO)NC(=O)[C@H](CO)NC(=O)[C@H](Cc1c[nH]cn1)NC(=O)[C@H](CCCNC(=N)N)NC(=O)[C@H](CC(C)C)NC(=O)[C@H](Cc1ccccc1)NC(=O)[C@H](CCC(=O)O)NC(=O)[C@H](C)NC(=O)[C@H](CC(C)C)NC(=O)[C@H](CCCNC(=N)N)NC(=O)[C@H](CCC(N)=O)NC(=O)[C@@H](NC(=O)[C@H](C)NC(=O)[C@@H]1CSSC[C@H](NC(=O)[C@@H](N)CCCCNC(=O)CC[C@H](NC(=O)CCCCCCCCCCCCCCCCCCC(=O)O)C(=O)O)C(=O)N[C@@H](CC(N)=O)C(=O)N[C@@H]([C@@H](C)O)C(=O)N[C@@H](C)C(=O)N[C@@H]([C@@H](C)O)C(=O)N1)[C@@H](C)O)C(=O)N1CCC[C@H]1C(=O)N[C@@H](CO)C(=O)N[C@@H](CO)C(=O)N[C@H](C(=O)N[C@@H](CC(N)=O)C(=O)N[C@H](C(=O)NCC(=O)N[C@@H](Cc1c[nH]cn1)C(=O)N[C@@H](CCC(=O)O)C(=O)N[C@H](C(=O)N[C@@H](Cc1ccc(O)cc1)C(N)=O)[C@@H](C)O)C(C)C)[C@@H](C)O` [Example 107] (H-K([γGlu-C20 diacid])CNTATCATQRLAEFLRHSSPNFGAIPSSTNVGHETY-NH2; disulfide 2-7 (inferred)), the IC50 in experiment [1] worked out at 4.28 nM; in experiment [3] (Table 7) it was 0.958 nM. Besides, the EC50 in experiment [2] was determined as 2.54 nM. The “Ratio rCT/rAmylin binding” value in experiment [3] (setting [4]), in experiment [3] (setting [5]) and in experiment [3] (setting [6]) was 34.6 in each case.

On to `CC[C@H](C)[C@H](NC(=O)[C@H](C)NC(=O)CNC(=O)[C@H](Cc1ccccc1)NC(=O)[C@H](CC(N)=O)NC(=O)[C@@H]1CCCN1C(=O)[C@H](CO)NC(=O)[C@H](CO)NC(=O)[C@H](Cc1c[nH]cn1)NC(=O)[C@H](CCCNC(=N)N)NC(=O)[C@H](CC(C)C)NC(=O)[C@H](Cc1ccccc1)NC(=O)[C@H](CC(N)=O)NC(=O)[C@H](C)NC(=O)[C@H](CC(C)C)NC(=O)[C@H](CCCNC(=N)N)NC(=O)[C@H](CCC(N)=O)NC(=O)[C@@H](NC(=O)[C@H](C)NC(=O)[C@@H]1CSSC[C@H](NC(=O)[C@@H](N)CCCCNC(=O)COCCOCCNC(=O)CC[C@H](NC(=O)CCCCCCCCCCCCCCCCCCC(=O)O)C(=O)O)C(=O)N[C@@H](CC(N)=O)C(=O)N[C@@H]([C@@H](C)O)C(=O)N[C@@H](C)C(=O)N[C@@H]([C@@H](C)O)C(=O)N1)[C@@H](C)O)C(=O)N1CCC[C@H]1C(=O)N[C@@H](CO)C(=O)N[C@@H](CO)C(=O)N[C@H](C(=O)N1CCC[C@H]1C(=O)N[C@H](C(=O)NCC(=O)N[C@@H](CO)C(=O)N[C@@H](Cc1c[nH]cn1)C(=O)N[C@H](C(=O)N[C@@H](Cc1ccc(O)cc1)C(N)=O)[C@@H](C)O)C(C)C)[C@@H](C)O` [Example 57] (H-K([AEEA-γGlu-C20 diacid])CNTATCATQRLANFLRHSSPNFGAIPSSTPVGSHTY-NH2; disulfide 2-7; N-terminus assumed), for which the half-maximal inhibitory concentration (IC50) is 15.3 nM in experiment [1] and 0.181 nM in experiment [3] (Table 7). In experiment [2], the EC50 is 3.12 nM. In addition, the “Ratio rCT/rAmylin binding” value in experiment [3] (setting [4]), in experiment [3] (setting [5]) and in experiment [3] (setting [6]) was 134.8 in each case.
